pIC50: −log10 of the molar value.
What was measured:
Assay type in all cases: biochemical
human JAK1 (aa 850-1154) = target: T1, human JAK1 (aa 850-1154) (Homo sapiens, UniProt P23458); assay: In vitro JAK kinase assay (TR-FRET), JAK1; conditions: catalytic domain GST-fusion; ATP 3 μM; peptide 60 nM; 30 minutes at room temperature
T1 construct: human JAK1 (aa 850-1154); GST (N); purchased Carna Biosciences; host or cells: baculovirus expression system
Protocol: (§1) Compounds were screened for their ability to inhibit JAK1, JAK2 and JAK3 using the assays as indicated below.
(§2) The catalytic domains of human JAK1 (aa 850-1154), JAK2 (aa 826-1132), JAK3 (aa 795-1124) and Tyk2 (aa 871-1187) were expressed as N-terminal GST-fusion proteins using a baculovirus expression system and were purchased from Carna Biosciences. The enzymatic activity was assayed using as substrate a biotinylated peptide, poly (GT)-Biotin (CisBio). The peptide concentration in the reactions was 60 nM for JAK1, 20 nM for JAK2, 140 nM for JAK3 and 50 nM for Tyk2. The degree of phosphorylation was detected by TR-FRET (time-resolved fluorescence energy transfer). IC50s of compounds were measured for each kinase in a reaction mixture containing the enzyme, ATP and the peptide in 8 mM MOPS (pH 7.0), 10 mM MgCl2, 0.05% β-mercaptoethanol, 0.45 mg/ml BSA. The ATP concentration in the reactions was 3 μM for JAK1, 0.2 μM for JAK2, 0.6 μM for JAK3 and 1.8 μM for Tyk2. The enzymatic reactions took place for 30 minutes at room temperature. Then, the reactions were stopped with 20 μL of quench detection buffer (50 mM HEPES, 0.5 M KF, EDTA 0.25 M, 0.1% (w/v) BSA, pH 7.5) containing 0.115 μg/mL of anti-phosphoTyr (PT66)-Cryptate (CisBio) and a variable concentration of SA-XL665 (CisBio) to keep the SA-B ratio constant. Incubate for 3 h and read on Victor 2V spectrofluorometer (PerkinElmer) set to read fluorescence resonance energy transfer.

human JAK3 (aa 795-1124) = target: T2, human JAK3 (aa 795-1124) (Homo sapiens, UniProt P52333); assay: In vitro JAK kinase assay (TR-FRET), JAK3; conditions: catalytic domain GST-fusion; ATP 0.6 μM; peptide 140 nM; 30 minutes at room temperature
T2 construct: JAK3 (aa 795-1124); GST (N); purchased Carna Biosciences; host or cells: baculovirus expression system
Protocol: as §1, §2

human JAK2 (aa 826-1132) = target: T3, human JAK2 (aa 826-1132) (Homo sapiens, UniProt O60674); assay: In vitro JAK kinase assay (TR-FRET), JAK2; conditions: catalytic domain GST-fusion; ATP 0.2 μM; peptide 20 nM; 30 minutes at room temperature
T3 construct: JAK2 (aa 826-1132); GST (N); purchased Carna Biosciences; host or cells: baculovirus expression system
Protocol: as §1, §2

T3 sequence (O60674 826-1132): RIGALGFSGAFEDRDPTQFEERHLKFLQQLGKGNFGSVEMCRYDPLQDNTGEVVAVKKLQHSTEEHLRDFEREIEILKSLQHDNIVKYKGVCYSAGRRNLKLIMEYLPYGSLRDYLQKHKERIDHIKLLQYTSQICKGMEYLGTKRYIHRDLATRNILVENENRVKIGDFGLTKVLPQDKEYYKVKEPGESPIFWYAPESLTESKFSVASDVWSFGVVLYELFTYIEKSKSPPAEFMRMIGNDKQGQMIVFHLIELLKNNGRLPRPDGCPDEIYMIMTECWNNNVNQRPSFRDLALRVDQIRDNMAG
T2 sequence (P52333 795-1124): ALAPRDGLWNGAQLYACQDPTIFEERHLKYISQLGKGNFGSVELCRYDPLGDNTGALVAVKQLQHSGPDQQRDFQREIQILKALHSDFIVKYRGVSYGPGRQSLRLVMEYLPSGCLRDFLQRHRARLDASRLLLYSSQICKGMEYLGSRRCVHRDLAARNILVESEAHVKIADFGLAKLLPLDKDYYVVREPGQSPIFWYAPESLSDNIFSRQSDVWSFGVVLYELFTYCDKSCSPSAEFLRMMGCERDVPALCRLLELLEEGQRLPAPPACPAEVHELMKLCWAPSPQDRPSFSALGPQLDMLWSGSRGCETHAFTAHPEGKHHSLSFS
T1 sequence (P23458 850-1154): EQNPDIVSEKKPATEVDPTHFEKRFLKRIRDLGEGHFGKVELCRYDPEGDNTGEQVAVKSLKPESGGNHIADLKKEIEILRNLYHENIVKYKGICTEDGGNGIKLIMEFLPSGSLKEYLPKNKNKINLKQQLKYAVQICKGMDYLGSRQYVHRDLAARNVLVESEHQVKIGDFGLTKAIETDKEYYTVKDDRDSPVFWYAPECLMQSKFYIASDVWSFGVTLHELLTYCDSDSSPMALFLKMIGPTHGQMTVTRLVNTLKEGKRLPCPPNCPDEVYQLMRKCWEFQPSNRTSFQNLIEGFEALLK

Compound | pIC50 (human JAK1 (aa 850-1154)) | pIC50 (human JAK3 (aa 795-1124)) | pIC50 (human JAK2 (aa 826-1132))
C[C@H](Nc1ccnc(-c2cnn3ccncc23)n1)c1ccccc1 [Example 21, (S)—N-(1-phenylethyl)-2-(pyrazolo[1,5-a]pyrazin-3-yl)pyrimidin-4-amine] | > 7.00 | > 7.00 | > 7.00
N#Cc1ccn2ncc(-c3nccc(NCC(F)(F)F)n3)c2c1 [Example 7, 3-{4-[(2,2,2-Trifluoroethyl)amino]pyrimidin-2-yl}pyrazolo[1,5-a]pyridine-5-carbonitrile] | < 6.00 | 6.00 to 7.00 | > 7.00
COC[C@H](C)Nc1ccnc(-c2cnn3ccc(C#N)cc23)n1 [Example 5, 3-(4-{[(1S)-2-Methoxy-1-methylethyl]amino}pyrimidin-2-yl)pyrazolo[1,5-a]pyridine-5-carbonitrile] | 6.00 to 7.00 | > 7.00 | > 7.00
N#Cc1ccn2ncc(-c3nccc(N[C@H]4CC[C@H](O)CC4)n3)c2c1 [Example 19, 3-(4-((Trans)-4-Hydroxycyclohexylamino)pyrimidin-2-yl)pyrazolo[1,5-a]pyridine-5-carbonitrile] | 6.00 to 7.00 | > 7.00 | > 7.00
N#CCC(=O)N1CCC[C@@H](Nc2ccnc(-c3cnn4ccc(C#N)cc34)n2)C1 [Example 14, 3-(4-{[(3R)-1-(Cyanoacetyl)piperidin-3-yl]amino}pyrimidin-2-yl)pyrazolo[1,5-a]pyridine-5-carbonitrile] | 6.00 to 7.00 | > 7.00 | > 7.00
N#Cc1ccc(N2CCC[C@@H](Nc3ccnc(-c4cnn5ccncc45)n3)C2)nc1 [Example 25, 6-{(3R)-3-[(2-Pyrazolo[1,5-a]pyrazin-3-ylpyrimidin-4-yl)amino]piperidin-1-yl}nicotinonitrile] | 6.00 to 7.00 | > 7.00 | > 7.00

Further lines, results first:

pIC50 (human JAK1 (aa 850-1154)) | pIC50 (human JAK3 (aa 795-1124)) | pIC50 (human JAK2 (aa 826-1132)) | Compound
> 7.00 | > 7.00 | > 7.00 | C[C@H](Nc1nc(-c2cnn3ccncc23)ncc1Cl)c1ccc(F)cn1 [Example 37, (S)-5-Chloro-N-(1-(5-fluoropyridin-2-yl)ethyl)-2-(pyrazolo[1,5-a]pyrazin-3-yl)pyrimidin-4-amine]
6.00 to 7.00 | > 7.00 | > 7.00 | CN(c1ccnc(-c2cnn3ccncc23)n1)[C@@H]1CCCN(C(=O)CC#N)C1 [Example 27, 3-{(3R)-3-[Methyl(2-pyrazolo[1,5-a]pyrazin-3-ylpyrimidin-4-yl)amino]piperidin-1-yl}-3-oxopropanenitrile]
6.00 to 7.00 | 6.00 to 7.00 | > 7.00 | Nc1cnc(-c2cnn3ccncc23)nc1NC1CCOCC1 [Example 35, 2-(Pyrazolo[1,5-a]pyrazin-3-yl)-N^4-(tetrahydro-2H-pyran-4-yl)pyrimidine-4,5-diamine]
6.00 to 7.00 | > 7.00 | > 7.00 | O=C(CC(F)(F)F)N1CCC[C@@H](Nc2nc(-c3cnn4ccncc34)ncc2F)C1 [Example 30, 5-Fluoro-2-pyrazolo[1,5-a]pyrazin-3-yl-N-[(3R)-1-(3,3,3-trifluoropropanoyl)piperidin-3-yl]pyrimidin-4-amine]

Source: patent publication US9206183B2, “Substituted pyrazolo[1,5-a]pyridines as JAK inhibitors” (ALMIRALL, S.A., priority 2010, dated 2015)
